Measured values reported in ChEMBL document CHEMBL1914323, “Tricyclic aminopyrimidine histamine H4 receptor antagonists” (Bioorg Med Chem Lett, 2011).
In brackets after ≈: the same amount, converted by molar mass. Activity calls are given as the source filed them. The rule behind the calls is not given here.

Tests used:
Histamine H4 receptor [1] = molecular target: T1, Histamine H4 receptor (Homo sapiens, UniProt Q9H3N8); test: Displacement of [3H]histamine from recombinant human histamine H4 receptor
Histamine H4 receptor [2] = molecular target: T1, Histamine H4 receptor; test: Antagonist activity at recombinant human histamine H4 receptor; assay type: functional; conditions: read-out: pA2 (converted)
[3] = Solubility of the compound at pH 7; assay type: physicochemical; conditions: buffer
[4] = Metabolic stability in rat liver microsomes assessed as half life; assay type: ADME, Microsome
[5] = Metabolic stability in human liver microsomes assessed as half life; assay type: ADME, Microsome
[6] = Metabolic stability in human liver microsomes after 15 mins; assay type: ADME, Microsome; conditions: read-out: Stability
[7] = Metabolic stability in rat liver microsomes after 15 mins; assay type: ADME, Microsome; conditions: read-out: Stability
[8] = Apparent permeability from basolateral to apical side of human Caco2 cells; assay type: ADME, cell-based; conditions: Caco-2
[9] = AUC in dog at 2 mg/kg, iv; assay type: ADME, organism-based, Canis lupus familiaris; parameters: dose 2 mg/kg, route intravenous; conditions: plasma
[10] = Fraction unbound in mouse plasma; assay type: ADME, cell-free
[11] = Oral bioavailability in rat at 10 mg/kg; assay type: ADME, organism-based; conditions: in vivo
[12] = Half life in rat at 2 mg/kg, iv; assay type: ADME, organism-based; parameters: dose 2 mg/kg, route intravenous; conditions: in vivo
[13] = Cmax in rat at 10 mg/kg, po; assay type: ADME, organism-based; parameters: dose 10 mg/kg, route oral; conditions: in vivo
[14] = Solubility of the compound at pH 2; assay type: physicochemical; conditions: buffer
[15] = molecular target: T2, Voltage-gated inwardly rectifying potassium channel KCNH2 (Homo sapiens, UniProt Q12809); test: Inhibition of human ERG by binding assay
[16] = molecular target: T2, Voltage-gated inwardly rectifying potassium channel KCNH2; test: Inhibition of human ERG by patch clamp technique
[17] = Half life in rat at 10 mg/kg, po; assay type: ADME, organism-based; parameters: dose 10 mg/kg, route oral; conditions: in vivo
[18] = Volume of distribution at steady state in dog at 2 mg/kg, iv; assay type: ADME, organism-based, Canis lupus familiaris; parameters: dose 2 mg/kg, route intravenous; conditions: in vivo, read-out: Vdss
[19] = AUC in rat at 2 mg/kg, iv; assay type: ADME, organism-based; parameters: dose 2 mg/kg, route intravenous; conditions: plasma
[20] = Fraction unbound in human plasma; assay type: ADME, cell-free
[21] = Half life in dog at 2 mg/kg, iv; assay type: ADME, organism-based, Canis lupus familiaris; parameters: dose 2 mg/kg, route intravenous; conditions: in vivo
[22] = Clearance in rat at 2 mg/kg, iv; assay type: ADME, organism-based; parameters: dose 2 mg/kg, route intravenous; conditions: in vivo
Mus musculus = test: Antiinflammatory activity in BALB/c mouse asthma model assessed as inhibition of ovalbumin-induced eosinophil accumulation in lung lavage at 10 mg/kg, po BID 20 mins prior to each ovalbumin challenge for 4 times measured after 24 hrs by coulter counter assay; assay type: functional, organism-based; parameters: dose 10 mg/kg
[23] = Apparent permeability from apical to basolateral side of human Caco2 cells; assay type: ADME, cell-based; conditions: Caco-2
[24] = Volume of distribution at steady state in rat at 2 mg/kg, iv; assay type: ADME, organism-based; parameters: dose 2 mg/kg, route intravenous; conditions: in vivo, read-out: Vdss
[25] = Clearance in dog at 2 mg/kg, iv; assay type: ADME, organism-based, Canis lupus familiaris; parameters: dose 2 mg/kg, route intravenous; conditions: in vivo
[26] = Oral bioavailability in dog at 10 mg/kg; assay type: ADME, organism-based, Canis lupus familiaris; conditions: in vivo
[27] = Metabolic stability in dog liver microsomes assessed as half life; assay type: ADME, Canis lupus familiaris, Microsome
[28] = Cmax in dog at 10 mg/kg, po; assay type: ADME, organism-based, Canis lupus familiaris; parameters: dose 10 mg/kg, route oral; conditions: in vivo
[29] = Half life in dog at 10 mg/kg, po; assay type: ADME, organism-based, Canis lupus familiaris; parameters: dose 10 mg/kg, route oral; conditions: in vivo

T1 sequence (Q9H3N8 whole entry): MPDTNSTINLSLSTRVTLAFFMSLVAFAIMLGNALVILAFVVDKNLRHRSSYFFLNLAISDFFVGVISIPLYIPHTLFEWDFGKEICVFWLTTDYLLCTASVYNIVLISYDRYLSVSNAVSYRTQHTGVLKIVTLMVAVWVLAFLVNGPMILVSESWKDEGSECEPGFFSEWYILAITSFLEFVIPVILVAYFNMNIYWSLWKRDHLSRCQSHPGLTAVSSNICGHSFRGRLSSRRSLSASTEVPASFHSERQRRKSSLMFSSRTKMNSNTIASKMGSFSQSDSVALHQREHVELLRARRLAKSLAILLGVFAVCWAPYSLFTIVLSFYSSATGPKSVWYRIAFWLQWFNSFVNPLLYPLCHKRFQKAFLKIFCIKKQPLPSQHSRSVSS
T2 sequence (Q12809 whole entry): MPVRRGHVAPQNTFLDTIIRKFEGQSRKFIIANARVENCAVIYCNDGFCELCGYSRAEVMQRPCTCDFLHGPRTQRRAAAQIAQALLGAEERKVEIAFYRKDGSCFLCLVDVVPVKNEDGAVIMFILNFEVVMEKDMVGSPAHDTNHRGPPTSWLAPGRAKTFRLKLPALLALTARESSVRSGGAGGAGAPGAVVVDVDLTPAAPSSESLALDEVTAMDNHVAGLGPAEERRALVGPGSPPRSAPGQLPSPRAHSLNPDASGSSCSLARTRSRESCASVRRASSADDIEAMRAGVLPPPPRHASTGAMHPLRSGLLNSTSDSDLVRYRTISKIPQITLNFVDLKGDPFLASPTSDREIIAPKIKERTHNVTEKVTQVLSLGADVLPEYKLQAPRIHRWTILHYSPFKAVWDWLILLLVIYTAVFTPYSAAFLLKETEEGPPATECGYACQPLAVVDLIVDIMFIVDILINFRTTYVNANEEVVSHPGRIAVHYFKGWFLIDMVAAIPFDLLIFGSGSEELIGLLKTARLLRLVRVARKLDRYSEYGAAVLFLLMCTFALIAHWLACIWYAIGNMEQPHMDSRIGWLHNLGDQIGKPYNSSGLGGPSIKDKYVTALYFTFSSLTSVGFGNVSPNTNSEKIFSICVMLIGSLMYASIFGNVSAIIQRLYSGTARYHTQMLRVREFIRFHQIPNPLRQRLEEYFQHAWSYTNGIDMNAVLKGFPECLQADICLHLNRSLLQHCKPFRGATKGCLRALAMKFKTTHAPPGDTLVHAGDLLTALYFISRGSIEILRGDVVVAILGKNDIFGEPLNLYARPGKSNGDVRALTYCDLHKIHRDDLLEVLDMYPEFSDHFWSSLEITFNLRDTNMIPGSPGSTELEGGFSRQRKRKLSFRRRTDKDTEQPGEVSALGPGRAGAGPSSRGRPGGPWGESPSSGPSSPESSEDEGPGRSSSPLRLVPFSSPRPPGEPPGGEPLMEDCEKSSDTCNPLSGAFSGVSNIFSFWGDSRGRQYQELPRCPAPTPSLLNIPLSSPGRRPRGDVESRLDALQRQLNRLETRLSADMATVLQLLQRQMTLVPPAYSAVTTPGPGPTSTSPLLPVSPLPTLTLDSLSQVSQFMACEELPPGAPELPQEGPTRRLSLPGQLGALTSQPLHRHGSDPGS

For `CN1CCN(c2nc(N)nc3c2oc2ccc(F)c(F)c23)CC1`, the Ki (Histamine H4 receptor [1]) was 156 nM.

For `CN1CCN(c2ncnc3c2sc2ccccc23)CC1`, the Ki (Histamine H4 receptor [1]) was 53 nM.

In the case of `CN(C)C1CCN(c2ncnc3c2sc2ccccc23)C1` (stereo not drawn), the Ki (Histamine H4 receptor [1]) is reported as > 10000 nM.

`Nc1nc(N2CCC[C@H](N)C2)c2oc3ccc(C(F)(F)F)cc3c2n1` showed a Ki (Histamine H4 receptor [1]) of 42 nM.

`Nc1nc(N2C[C@H]3C[C@@H]2CN3)c2oc3ccc(Cl)cc3c2n1` gave a Ki (Histamine H4 receptor [1]) of 104 nM.

Compound `Nc1nc(N2C[C@@H]3C[C@H]2CN3)c2oc3ccccc3c2n1` has a Ki (Histamine H4 receptor [1]) of 196 nM.

In the case of `CN1CCN(c2ncnc3c2oc2ccc(Cl)cc23)CC1`, the Kb (Histamine H4 receptor [2]) is reported as 2.51 nM, the Ki (Histamine H4 receptor [1]) is reported as 4.7 nM and the solubility [3] is reported as 0.053 µM (≈ 0.016 µg/mL). For the same compound, the half-life [4] was < 0.0833 h and the half-life [5] was < 0.0833 h.

With `Cc1csc2c(N3CCCN(C)CC3)ncnc12` the Ki (Histamine H4 receptor [1]) was > 10000 nM.

`NCC1CN(c2nc(N)nc3c2oc2ncc(Cl)cc23)C1` gave a Ki (Histamine H4 receptor [1]) of 376 nM.

Compound `CN1CCN(c2nc(N)nc3c2oc2ncc(Cl)cc23)CC1` has a Ki (Histamine H4 receptor [1]) of 33 nM.

Compound `CN1CCCN(c2nc(N)nc3c2oc2ncc(Cl)cc23)CC1` has a Ki (Histamine H4 receptor [1]) of 37 nM.

For `Nc1nc(N2CCNCC2)c2oc3c(Cl)cc(Cl)cc3c2n1`, the Ki (Histamine H4 receptor [1]) was 138 nM.

Work on `Nc1nc(N2CC[C@@H](N)C2)c2oc3ncc(Cl)cc3c2n1` yielded a Ki (Histamine H4 receptor [1]) of 16 nM.

In the case of `Nc1nc(N2CCNCC2)c2oc3cccc(Cl)c3c2n1`, the Ki (Histamine H4 receptor [1]) is reported as 1050 nM.

With `Nc1nc(N2C[C@@H]3CCCN[C@@H]3C2)c2oc3ccc(Cl)cc3c2n1` the Ki (Histamine H4 receptor [1]) was 21 nM.

`Nc1nc(N2C[C@H]3CCCN[C@H]3C2)c2oc3ccc(Cl)cc3c2n1` showed a Ki (Histamine H4 receptor [1]) of 4.7 nM.

Work on `Nc1nc(N2CC3CCNC3C2)c2oc3ncc(Cl)cc3c2n1` (stereo not drawn) yielded a Ki (Histamine H4 receptor [1]) of 139 nM.

With `Cc1csc2c(N3CCN(C)CC3)ncnc12` the Ki (Histamine H4 receptor [1]) was > 205 nM.

Work on `CN1CCN(c2nc(N)nc3c2oc2ccc(Cl)c(Cl)c23)CC1` yielded a Ki (Histamine H4 receptor [1]) of 7.7 nM.

`CN[C@H]1CCN(c2nc(N)nc3c2sc2ccc(Br)cc23)C1` showed a Ki (Histamine H4 receptor [1]) of 65 nM.

With `CNC1CCN(c2ncnc3c2sc2ccccc23)CC1` the Ki (Histamine H4 receptor [1]) was > 10000 nM.

Compound `CN[C@@H]1CCN(c2nc(N)nc3c2sc2ccc(Cl)cc23)C1` has a Ki (Histamine H4 receptor [1]) of 10 nM.

For `Nc1nc(N2CCNCC2)c2oc3ncc(Cl)cc3c2n1`, the Ki (Histamine H4 receptor [1]) was 35 nM.

`NC[C@H]1CCN(c2nc(N)nc3c2oc2ccc(Cl)cc23)C1` gave a Ki (Histamine H4 receptor [1]) of 137 nM.

For `CN1CCN(c2ncnc3c2oc2ccccc23)CC1`, the Ki (Histamine H4 receptor [1]) was 56 nM and the half-life [5] was < 0.0833 h.

With `CN1CCN(c2nc(N)nc3c2oc2ccc(Cl)cc23)CC1` the Kb (Histamine H4 receptor [2]) was 2 nM, the Ki (Histamine H4 receptor [1]) was 0.1 nM and the remaining at […] [6] was 84%. It also gave a remaining at […] [7] of 0.3%.

With `CN[C@@H]1CCN(c2nc(N)nc3c2oc2ccc(OC)cc23)C1` the Ki (Histamine H4 receptor [1]) was 11 nM.

With `CN[C@@H]1CCN(c2nc(N)nc3c2sc2cc(C(F)(F)F)ccc23)C1` the Ki (Histamine H4 receptor [1]) was 125 nM.

`CNC1CCN(c2nc(N)nc3c2oc2ccc(Cl)cc23)C1` (stereo not drawn) gave a Kb (Histamine H4 receptor [2]) of 10 nM, a Ki (Histamine H4 receptor [1]) of 0.9 nM and a remaining at […] [6] of 100%. The solubility [3] was 0.054 µM (≈ 0.0172 µg/mL) and the remaining at […] [7] was 100%.

`Nc1nc(N2CCNCC2)c2oc3ccc(F)c(F)c3c2n1` gave a Ki (Histamine H4 receptor [1]) of 156 nM.

`Nc1nc(N2CCNCC2)c2oc3ccc(Cl)c(Cl)c3c2n1` gave a Ki (Histamine H4 receptor [1]) of 7.7 nM.

For `CN[C@@H]1CCN(c2nc(N)nc3c2oc2ccc(F)cc23)C1`, the Ki (Histamine H4 receptor [1]) was 2 nM.

Work on `C[C@H]1CN(c2nc(N)nc3c2oc2ncc(Cl)cc23)CCN1` yielded a Ki (Histamine H4 receptor [1]) of 885 nM.

In the case of `CN[C@@H]1CCN(c2nc(N)nc3c2oc2cccc(Cl)c23)C1`, the Ki (Histamine H4 receptor [1]) is reported as 40 nM.

Work on `CN1CCN(c2nc(N)nc3c2sc2cc(Cl)ccc23)CC1` yielded a Ki (Histamine H4 receptor [1]) of 18 nM.

Compound `Nc1nc(N2CC[C@@H](NCCO)C2)c2oc3ccc(Cl)cc3c2n1` has a Ki (Histamine H4 receptor [1]) of 46 nM.

Compound `Nc1nc(N2CCC[C@@H](N)C2)c2oc3ccc(Cl)cc3c2n1` has a Ki (Histamine H4 receptor [1]) of 9.1 nM.

With `CN[C@@H]1CCN(c2nc(N)nc3c2oc2ccc(Cl)cc23)C1` the Ki (Histamine H4 receptor [1]) was 0.4 nM.

`CN1CCN(c2nc(N)nc3c2sc2ccc(Cl)cc23)CC1` showed a Ki (Histamine H4 receptor [1]) of 0.3 nM.

For `CN[C@@H]1CCN(c2nc(N)nc3c2oc2ncc(Cl)cc23)C1`, the Papp B→A [8] was 22 ×10⁻⁶ cm/s, the AUC [9] was 5.2 µM·h and the fraction unbound [10] was 0.18. For the same compound, the bioavailability [11] was 91%, the half-life [12] was 1.2 h and the Cmax [13] was 1200 nM. For the same compound, the solubility [14] was > 0.4 µM, the Kb (Histamine H4 receptor [2]) was 5.01 nM and the IC50 [15] was > 10000 nM. The INH [16] was > 3 µM, the half-life [17] was 6.8 h and the Vd [18] was 16.5 L/kg. For the same compound, the AUC [19] was 1.6 µM·h, the fraction unbound [20] was 0.43 and the half-life [21] was 9.7 h. The clearance [22] was 68.3 mL/min/kg, the inhibition (Mus musculus) was “Active” and the Papp A→B [23] was 23 ×10⁻⁶ cm/s. The Ki (Histamine H4 receptor [1]) was 9.4 nM, the Vd [24] was 6.9 L/kg and the clearance [25] was 21.7 mL/min/kg. The bioavailability [26] was 91%, the half-life [27] was > 3 h and the solubility [3] was > 0.4 µM. For the same compound, the Cmax [28] was 1800 nM, the half-life [29] was 10.5 h and the half-life [4] was > 1.02 h. For the same compound, the half-life [5] was > 3 h.

Compound `Nc1nc(N2C[C@@H]3C[C@H]2CN3)c2oc3ccc(Cl)cc3c2n1` has a Ki (Histamine H4 receptor [1]) of 26 nM.

`CN1CCN(c2nc(N)nc3c4cc(Cl)ccc4[s+]([O-])c23)CC1` (stereo not drawn) showed a Ki (Histamine H4 receptor [1]) of 1280 nM.

With `CN[C@@H]1CCN(c2nc(N)nc3c2oc2c(Cl)cc(Cl)cc23)C1` the Ki (Histamine H4 receptor [1]) was 8 nM.

With `Nc1nc(N2C[C@@H]3C[C@H]2CN3)c2oc3cccc(Cl)c3c2n1` the Ki (Histamine H4 receptor [1]) was 443 nM.

With `CN[C@H]1CCN(c2nc(N)nc3c2sc2ccc(Cl)cc23)C1` the Ki (Histamine H4 receptor [1]) was 76 nM.

`CN[C@@H]1CCN(c2nc(N)nc3c2sc2ccc(F)cc23)C1` showed a Ki (Histamine H4 receptor [1]) of 31 nM.

For `Nc1nc(N2CCNCC2)c2oc3cccc(F)c3c2n1`, the Ki (Histamine H4 receptor [1]) was 145 nM.

`Nc1nc(N2CCC[C@H](N)C2)c2oc3ccc(Cl)cc3c2n1` showed a Ki (Histamine H4 receptor [1]) of 5.7 nM.

Compound `CN[C@@H]1CCN(c2nc(N)nc3c2oc2ccc(Br)cc23)C1` has a Ki (Histamine H4 receptor [1]) of 0.7 nM.

For `CN1CCN(CCCOc2ccc(-c3nc4cc(Cl)ccc4[nH]3)cc2)CC1`, the Ki (Histamine H4 receptor [1]) was 120 nM.

In the case of `CN(C)C1CCN(c2ncnc3c2sc2ccccc23)CC1`, the Ki (Histamine H4 receptor [1]) is reported as > 10000 nM.

With `Nc1nc(N2C[C@@H]3C[C@H]2CN3)c2oc3ncc(Cl)cc3c2n1` the Ki (Histamine H4 receptor [1]) was > 10000 nM.

With `CN[C@H]1CCN(c2nc(N)nc3c2oc2ccc(Cl)cc23)C1` the Ki (Histamine H4 receptor [1]) was 2 nM.

With `Nc1nc(N2CC(N)C2)c2oc3ncc(Cl)cc3c2n1` the Ki (Histamine H4 receptor [1]) was 613 nM.
